Reference: patent US6461997B1, “Triazole sulfones having herbicidal activity” (Monsanto Technology LLC, priority 1999, dated 2002)

How the values were obtained:
DATST (jimsonweed) = test: Pre-emergence herbicidal activity, warm season; assay type: in vivo, Datura stramonium; settings: GR80 = lowest tested rate (300, 100, 30, 10 g/ha) with 80% or greater inhibition; approx. 14 days after treating; 30/21° C.
In short: (§1)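 Seeds sown in sterilised fertilised topsoil received surface-applied compound in 50:50 acetone/water, typically at 300, 100, 30 and 10 g/ha, then greenhouse-grown at 30/21° C (warm-season species) or 18/13° C (cool-season species). Percent inhibition versus untreated plants was scored at about 14 days, giving GR80; an asterisk marks activity short of 80% at the top rate.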

CONAR (field bindweed) [1] = test: Pre-emergence herbicidal activity, warm season; assay type: in vivo, Convolvulus arvensis; settings: GR80 = lowest tested rate (300, 100, 30, 10 g/ha) with 80% or greater inhibition; approx. 14 days after treating; 30/21° C.
In short: as §1

KCHSC (kochia) [2] = test: Pre-emergence herbicidal activity, cool season; assay type: in vivo, Kochia scoparia; settings: lowest tested rate with 80% or greater inhibition; rates 300, 100, 30, 10 g/ha; about 14 days
Method: (§2) Tables 5 to 8 summarize results of tests conducted as described below to determine the pre-emergence herbicidal activity, in the form of a GR80 value, of illustrative compounds of this invention. […] Compounds of the invention were typically applied at rates of 300, 100, 30, and 10 g/ha. Where herbicidal activity was evident but 80% inhibition was not achieved at the highest rate tested, an asterisk (*) is shown in the following tables.
(§3) The pre-emergence tests were conducted by the following procedure. Topsoil was sieved to pass through a 1.27 cm screen. Fertilizer was added to the topsoil and the mixture was then sterilized by heating. The topsoil mixture was placed in a pot and compacted to a depth of 1.0 to 1.25 cm from the top of the pot. Seeds of each of several monocotyledonous and dicotyledonous annual plant species were placed on top of the soil. Additional soil was subsequently placed over the seeds to level-fill the pot. A known amount of each test compound dissolved or suspended in an appropriate organic solvent was diluted with a 50:50 mix of acetone and water and applied to the surface of the soil. After treatment the plants were placed in a greenhouse where they received 0.64 cm of overhead irrigation. All subsequent watering consisted of a light overhead mist and/or subirrigation as needed for germination and growth. Tables 5 and 6 below relate to warm season plant species which were placed after pre-emergence treatment in a greenhouse with a 30/21° C. day/night temperature regime. Tables 7 and 8 below relates to cool season plant species placed after pre-emergence treatment in a greenhouse or growth chamber with an 18/13° C. day/night temperature regime.
(§4) Approximately 14 days after planting and treating, the plants were observed and herbicidal efficacy recorded as percent inhibition by comparison with untreated plants.
(§5) The plant species usually regarded as weeds which were utilized in the tests are identified in the tables below according to the following legend, in which “d” indicates a dicotyledonous species and “m” a monocotyledonous species. All monocotyledonous species included in the tests herein are grasses.

LOLMG (annual ryegrass) = test: Pre-emergence herbicidal activity, cool season; assay type: in vivo, Lolium multiflorum; settings: GR80 = lowest tested rate (300, 100, 30, 10 g/ha) with 80% or greater inhibition; approx. 14 days after treating; 18/13° C.
In short: as §1

BROTE (downy brome) = test: Pre-emergence herbicidal activity, cool season; assay type: in vivo, Bromus tectorum; settings: GR80 = lowest tested rate (300, 100, 30, 10 g/ha) with 80% or greater inhibition; approx. 14 days after treating; 18/13° C.
In short: as §1

[3] = system: AGRRE (quackgrass (seedling)); test: Pre-emergence herbicidal activity, cool season; assay type: in vivo, Elymus repens; settings: GR80 = lowest tested rate (300, 100, 30, 10 g/ha) with 80% or greater inhibition; approx. 14 days after treating; 18/13° C.
Method: as §2, §3, §4, §5

[4] = system: IPOSS (annual morningglory); test: Pre-plant incorporated (PPI) herbicidal activity, warm season; assay type: in vivo, Ipomoea spp.; settings: PPI application
Method: (§6) In another set of tests, the pre-plant incorporated (PPI) activity of compounds of this invention was evaluated on the same species as for the pre-emergence tests described above. In the PPI tests the following procedure, designed to simulate PPI application, was used.
(§7) A pre-prepared topsoil mixture (described above) was placed in a pot and compacted to a depth of 1.0 to 1.25 cm from the top of the pot. Seeds of each of several monocotyledonous and dicotyledonous annual plant species were placed on top of the soil. A sufficient quantity of soil to cover the seeds and level fill the pot was weighed into an open container. A known amount of the test compound was dissolved or suspended in an organic solvent and applied by spraying to this cover soil. The cover soil was thoroughly mixed to distribute the test compound throughout the cover soil, and was then applied as a cover layer over the seeds. Untreated soil was used as a cover layer for control pots. After treatment the plants were placed in a greenhouse where they received 0.64 cm of overhead irrigation. All subsequent watering consisted of a light overhead mist and/or subirrigation as needed for germination and growth. Tables 9 and 10 below relate to warm season plant species which were placed after pre-emergence treatment in a greenhouse with a 30/21° C. day/night temperature regime. Tables 11 and 12 below relates to cool season plant species placed after pre-emergence treatment in a greenhouse or growth chamber with an 18/13° C. day/night temperature regime. Only the compounds of Examples 1, 6, 8, 11, 13 and 15-20 were included in PPI tests.
as §4

CONAR (field bindweed) [5] = test: as above; assay type: in vivo, Convolvulus arvensis; settings: GR80 = lowest tested rate with 80% or greater inhibition, approx. 14 days after treating, 30/21° C.
Method: as §6, §7, §4

ABUTH (velvetleaf) = test: Pre-emergence herbicidal activity, warm season; assay type: in vivo, Abutilon theophrasti; settings: GR80 = lowest tested rate (300, 100, 30, 10 g/ha) with 80% or greater inhibition; approx. 14 days after treating; 30/21° C.
In short: as §1

KCHSC (kochia) [6] = test: Pre-plant incorporated (PPI) herbicidal activity, cool season; assay type: in vivo, Kochia scoparia; settings: for PPI activity GR80, KCHSC: pre-plant incorporated, lowest tested rate with 80% or greater inhibition, about 14 days; for inhibition at 10 g/ha / inhibition at 30 g/ha / inhibition at 100 g/ha / inhibition at 300 g/ha / inhibition at 900 g/ha: Bassia scoparia, weed, PPI application, read-out: Percent inhibition KCHSC
Method: as §6, §7, §4

| SMILES | Pre-emergence activity (GR80) DATST (DATST (jimsonweed)) | Pre-emergence activity (GR80) CONAR (CONAR (field bindweed) [1]) | Pre-emergence activity GR80, KCHSC (KCHSC (kochia) [2]) [g/ha] | Pre-emergence activity (GR80) LOLMG (LOLMG (annual ryegrass)) | Pre-emergence activity (GR80) BROTE (BROTE (downy brome)) | Pre-emergence activity (GR80) AGRRE [3] | Percent inhibition IPOSS ([4]; 100 g/ha) [%] | Percent inhibition IPOSS ([4]; 300 g/ha) [%] | Percent inhibition IPOSS ([4]; 900 g/ha) [%] | Percent inhibition IPOSS ([4]; 30 g/ha) [%] | Percent inhibition IPOSS ([4]; 10 g/ha) [%] | PPI activity (GR80) CONAR (CONAR (field bindweed) [5]) | Pre-emergence activity (GR80) ABUTH (ABUTH (velvetleaf)) | PPI activity GR80, KCHSC (KCHSC (kochia) [6]) | inhibition at 10 g/ha (KCHSC (kochia) [6]) [%] | inhibition at 30 g/ha (KCHSC (kochia) [6]) [%] | inhibition at 100 g/ha (KCHSC (kochia) [6]) [%] | inhibition at 300 g/ha (KCHSC (kochia) [6]) [%] | inhibition at 900 g/ha (KCHSC (kochia) [6]) [%] |
| --- | --- | --- | --- | --- | --- | --- | --- | --- | --- | --- | --- | --- | --- | --- | --- | --- | --- | --- | --- |
| CCN(CC)C(=O)n1cnc(S(=O)(=O)C(F)(F)F)n1 [Example 2] | 300 g/ha | 300 g/ha | 300 | 300 g/ha | 300 g/ha | 100 g/ha | 20 | 100 | 95 |  |  |  |  |  |  |  |  |  |  |
| CCN(CC)C(=O)n1cnc(S(=O)(=O)C(F)(F)Cl)n1 [Example 3] | 100 g/ha | 300 g/ha | 300 |  | * (activity observed, at least at highest rate, but <80% inhibition) |  | 50 | 100 | 80 | 0 |  |  |  |  |  |  |  |  |  |
| CCN(CC)C(=O)n1cnc(S(=O)(=O)C(F)(F)C(F)(F)Br)n1 [Example 4] | 300 g/ha |  | 100 | 300 g/ha | 300 g/ha | 30 g/ha | 80 | 60 | 100 | 0 |  |  |  |  |  |  |  |  |  |
| CCN(CC)C(=O)n1cnc(S(=O)(=O)C(F)(F)SC)n1 [Example 9] | 300 g/ha | 300 g/ha | 300 | * (activity observed, at least at highest rate, but <80% inhibition) | 100 g/ha |  | 100 | 40 | 100 | 0 |  |  |  |  |  |  |  |  |  |
| CCN(CC)C(=O)n1cnc(S(=O)(=O)C(F)(F)SCc2ccccc2)n1 [Example 10] |  |  |  |  |  |  | 0 | 0 | 50 | 0 | 0 |  |  |  |  |  |  |  |  |
| CCN(CC)C(=O)n1cnc(S(=O)(=O)C(F)(F)SCC(=O)OC)n1 [Example 11] |  |  |  |  |  |  | 0 | 0 | 0 | 0 | 0 | 100 g/ha |  |  |  |  |  |  |  |
| CCN(CC)C(=O)n1cnc(S(=O)(=O)C(F)(F)SCCOC)n1 [Example 13] |  |  |  |  | 300 g/ha |  | 0 | 10 | 100 | 0 | 0 | * (activity observed, at least at highest rate, but <80% inhibition) | 300 g/ha | * (activity observed, at least at highest rate, but <80% inhibition) |  |  |  |  |  |
| CCN(CC)C(=O)n1cnc(S(=O)(=O)C(F)(F)C(F)(F)SC)n1 [Example 14] |  | * (activity observed, at least at highest rate, but <80% inhibition) |  |  |  | * (activity observed, at least at highest rate, but <80% inhibition) |  |  |  |  |  |  |  |  |  |  |  |  |  |
| CCN(CC)C(=O)n1cnc(S(=O)(=O)C(F)(F)C(F)F)n1 [Example 16] | 300 g/ha | 300 g/ha |  | 300 g/ha |  | * (activity observed, at least at highest rate, but <80% inhibition) | 0 | 0 | 50 | 0 | 0 | 100 g/ha | 300 g/ha | 30 g/ha |  |  |  |  |  |
| C=CCC(F)(F)S(=O)(=O)c1ncn(C(=O)N(CC)CC)n1 [Example 17, 1-(N,N-diethylcarbamoyl)-3-[(1,1-difluoro-3-butenyl)sulfonyl]-1,2,4-triazole] |  |  |  | 100 g/ha | 100 g/ha |  |  |  |  |  |  | * (activity observed, at least at highest rate, but <80% inhibition) | 300 g/ha | 30 g/ha | 70 | 100 | 100 | 100 | 100 |
| C=C(C)CC(F)(F)S(=O)(=O)c1ncn(C(=O)N(CC)CC)n1 [Example 18] | 300 g/ha |  |  | 300 g/ha | 300 g/ha | 300 g/ha |  |  |  |  |  | 100 g/ha | * (activity observed, at least at highest rate, but <80% inhibition) |  | 40 | 80 | 80 | 100 | 100 |
| C=C(Br)CC(F)(F)S(=O)(=O)c1ncn(C(=O)N(CC)CC)n1 [Example 19] | * (activity observed, at least at highest rate, but <80% inhibition) | * (activity observed, at least at highest rate, but <80% inhibition) |  | 300 g/ha | * (activity observed, at least at highest rate, but <80% inhibition) | * (activity observed, at least at highest rate, but <80% inhibition) |  |  |  |  |  | 300 g/ha |  |  | 0 | 20 | 80 | 80 | 100 |
